# Assays:
# AMARE = assay: Post-emergence herbicidal action against AMARE; type: in vivo, Amaranthus retroflexus; conditions: Amaranthus retroflexus, 504 h, visual assessment about 3 weeks after treatment, 100% = plants have died, 0% = like control plants
# How it was run: (§1)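 Herbicidal effect was scored visually in percent after about 3 weeks in the greenhouse. Plants had been raised in sandy loam and treated post-emergence at the one-leaf stage with formulated compound at 600 to 800 l/ha water plus 0.2% wetting agent.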
# HORMU [1] = assay: Pre-emergence herbicidal action against HORMU; type: in vivo, Hordeum murinum; conditions: Hordeum murinum, 504 h, pre-emergence
# How it was run: (§2)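 Herbicidal effect was assessed 3 weeks after treatment by visual comparison with untreated controls, 100% denoting dead plants. Aqueous WP or EC preparations had been applied at 600 to 800 l/ha with 0.2% wetting agent to the soil covering freshly sown seeds.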
# ABUTH [2] = assay: Pre-emergence herbicidal action against ABUTH; type: in vivo, Abutilon theophrasti; conditions: Abutilon theophrasti, 504 h; for pest or weed control at 80 g/ha: scored visually after 3 weeks vs untreated controls (100% = plants have died, 0% = like control plants); for pest or weed control at 320 g/ha: Dosage: 320 g/ha, scored visually after 3 weeks
# How it was run: as §2
# VIOTR = assay: Post-emergence herbicidal action against VIOTR; type: in vivo, Viola tricolor; conditions: Viola tricolor, 504 h
# How it was run: as §1
# ABUTH [3] = assay: Post-emergence herbicidal action against ABUTH; type: in vivo, Abutilon theophrasti; conditions: Abutilon theophrasti, 504 h, visual assessment about 3 weeks after treatment vs untreated controls; for pest or weed control at 20 g/ha: dosage 20 g/ha; for pest or weed control at 80 g/ha: dosage 80 g/ha
# How it was run: as §1
# POLCO [4] = assay: Pre-emergence herbicidal action against POLCO; type: in vivo, Polygonum convolvulus; conditions: Fallopia convolvulus, 504 h; for pest or weed control at 320 g/ha: dosage 320 g/ha
# How it was run: as §2
# ECHCG [5] = assay: Pre-emergence herbicidal action against ECHCG; type: in vivo, Echinochloa crus-galli; conditions: Echinochloa crus-galli, 504 h
# How it was run: as §2
# MATIN [6] = assay: Pre-emergence herbicidal action against MATIN; type: in vivo, Matricaria inodora; conditions: Tripleurospermum inodorum, 504 h; for pest or weed control at 80 g/ha: dosage 80 g/ha; for pest or weed control at 320 g/ha: dosage 320 g/ha
# How it was run: as §2
# ALOMY = assay: Post-emergence herbicidal action against ALOMY; type: in vivo, Alopecurus myosuroides; conditions: Alopecurus myosuroides, 504 h, visual assessment about 3 weeks after treatment vs untreated controls; for pest or weed control at 20 g/ha: dosage 20 g/ha; for pest or weed control at 80 g/ha: dosage 80 g/ha
# How it was run: as §1
# POLCO [7] = assay: Post-emergence herbicidal action against POLCO; type: in vivo, Polygonum convolvulus; conditions: Fallopia convolvulus, 504 h, dosage 80 g/ha
# How it was run: as §1
# LOLRI [8] = assay: Pre-emergence herbicidal action against LOLRI; type: in vivo, Lolium rigidum; conditions: Lolium rigidum, 504 h, 320 g/ha
# How it was run: as §2
# AVEFA [9] = assay: Post-emergence herbicidal action against AVEFA; type: in vivo, Avena fatua; conditions: Avena fatua, 504 h, visual assessment about 3 weeks after treatment, 100% = plants have died, 0% = like control plants
# How it was run: as §1
# LOLRI [10] = assay: Post-emergence herbicidal action against LOLRI; type: in vivo, Lolium rigidum; conditions: Lolium rigidum, 504 h; for pest or weed control at 80 g/ha: dosage 80 g/ha
# How it was run: as §1
# STEME [11] = assay: Pre-emergence herbicidal action against STEME; type: in vivo, Stellaria media; conditions: Stellaria media, 504 h; for pest or weed control at 80 g/ha: dosage 80 g/ha; for pest or weed control at 320 g/ha: dosage 320 g/ha
# How it was run: as §2
# MATIN [12] = assay: Post-emergence herbicidal action against MATIN; type: in vivo, Matricaria inodora; conditions: Tripleurospermum inodorum, 504 h; for pest or weed control at 20 g/ha: dosage 20 g/ha; for pest or weed control at 80 g/ha: dosage 80 g/ha
# How it was run: as §1
# AVEFA [13] = assay: Pre-emergence herbicidal action against AVEFA; type: in vivo, Avena fatua; conditions: Avena fatua, 504 h, pre-emergence; for pest or weed control at 320 g/ha: scored visually after 3 weeks, 100% = plants have died, 0% = like control plants
# How it was run: as §2
# HORMU [14] = assay: Post-emergence herbicidal action against HORMU; type: in vivo, Hordeum murinum; conditions: Hordeum murinum, 504 h; for pest or weed control at 80 g/ha: dosage 80 g/ha
# How it was run: as §1
# VERPE [15] = assay: Pre-emergence herbicidal action against VERPE; type: in vivo, Veronica persica; conditions: Veronica persica, 504 h; for pest or weed control at 320 g/ha: dosage 320 g/ha
# How it was run: as §2
# SETVI = assay: Post-emergence herbicidal action against SETVI; type: in vivo, Setaria viridis; conditions: Setaria viridis, 504 h; for pest or weed control at 20 g/ha: dosage 20 g/ha; for pest or weed control at 80 g/ha: dosage 80 g/ha
# How it was run: as §1
# VERPE [16] = assay: Post-emergence herbicidal action against VERPE; type: in vivo, Veronica persica; conditions: Veronica persica, 504 h
# How it was run: as §1
# PHBPU = assay: Post-emergence herbicidal action against PHBPU; type: in vivo, Pharbitis purpurea; conditions: Ipomoea purpurea, 504 h; for pest or weed control at 80 g/ha: dosage 80 g/ha
# How it was run: as §1
# ECHCG [17] = assay: Post-emergence herbicidal action against ECHCG; type: in vivo, Echinochloa crus-galli; conditions: Echinochloa crus-galli, 504 h; for pest or weed control at 80 g/ha: dosage 80 g/ha
# How it was run: as §1
# STEME [18] = assay: Post-emergence herbicidal action against STEME; type: in vivo, Stellaria media; conditions: Stellaria media, 504 h
# How it was run: as §1
# [19] = 100% = plants have died, 0% = like control plants
structure (smiles),measurement,setting,value
CCCn1nnnc1NC(=O)c1ccc(C(F)(F)F)c(C(=O)NC)c1Cl [Example 3-129],pest or weed control at 20 g/ha,AMARE,100%
same,pest or weed control at 80 g/ha,AMARE,100%
same,pest or weed control at 80 g/ha,HORMU [1],90%
same,pest or weed control at 320 g/ha,HORMU [1],100%
same,pest or weed control at 80 g/ha,ABUTH [2],100%
same,pest or weed control at 320 g/ha,ABUTH [2]; [19],100%
same,pest or weed control at 20 g/ha,"ABUTH [2]; dosage 20 g/ha, scored visually after 3 weeks vs untreated controls, 100% = plants have died, 0% = like control plants, read-out: Pre-emergence action against ABUTH (herbicidal activity in percent)",100%
same,pest or weed control at 5 g/ha,VIOTR; 5 g/ha,80%
same,pest or weed control at 20 g/ha,VIOTR; 20 g/ha,90%
same,pest or weed control at 80 g/ha,VIOTR,100%
same,pest or weed control at 5 g/ha,ABUTH [3]; dosage 5 g/ha,100%
same,pest or weed control at 20 g/ha,ABUTH [3],100%
same,pest or weed control at 80 g/ha,ABUTH [3],100%
same,pest or weed control at 80 g/ha,POLCO [4]; dosage 80 g/ha,80%
same,pest or weed control at 320 g/ha,POLCO [4],100%
same,pest or weed control at 80 g/ha,ECHCG [5],80%
same,pest or weed control at 320 g/ha,ECHCG [5],100%
same,pest or weed control at 20 g/ha,MATIN [6]; dosage 20 g/ha,90%
same,pest or weed control at 80 g/ha,MATIN [6],100%
same,pest or weed control at 320 g/ha,MATIN [6],100%
same,pest or weed control at 20 g/ha,ALOMY,80%
same,pest or weed control at 80 g/ha,ALOMY,100%
same,pest or weed control at 80 g/ha,POLCO [7],90%
same,pest or weed control at 320 g/ha,LOLRI [8],100%
same,pest or weed control at 20 g/ha,AVEFA [9],100%
same,pest or weed control at 80 g/ha,AVEFA [9],100%
same,pest or weed control at 80 g/ha,LOLRI [10],80%
same,pest or weed control at 20 g/ha,STEME [11]; dosage 20 g/ha,90%
same,pest or weed control at 80 g/ha,STEME [11],100%
same,pest or weed control at 320 g/ha,STEME [11],100%
same,pest or weed control at 5 g/ha,MATIN [12]; dosage 5 g/ha,100%
same,pest or weed control at 20 g/ha,MATIN [12],100%
same,pest or weed control at 80 g/ha,MATIN [12],100%
same,pest or weed control at 80 g/ha,AVEFA [13],100%
same,pest or weed control at 320 g/ha,AVEFA [13],100%
same,pest or weed control at 20 g/ha,HORMU [14]; dosage 20 g/ha,90%
same,pest or weed control at 80 g/ha,HORMU [14],100%
same,pest or weed control at 320 g/ha,VERPE [15],100%
same,pest or weed control at 20 g/ha,SETVI,100%
same,pest or weed control at 80 g/ha,SETVI,100%
same,pest or weed control at 80 g/ha,VERPE [16],80%
same,pest or weed control at 20 g/ha,PHBPU; dosage 20 g/ha,90%
same,pest or weed control at 80 g/ha,PHBPU,100%
same,pest or weed control at 80 g/ha,ECHCG [17],100%
same,pest or weed control at 20 g/ha,STEME [18],100%
same,pest or weed control at 80 g/ha,STEME [18],100%
same,pest or weed control at 5 g/ha,STEME [18]; dosage 5 g/ha,100%
CCn1nnnc1NC(=O)c1ccc(C(F)(F)F)c(C(=O)NC)c1SC [Example 2-81],pest or weed control at 20 g/ha,AMARE,90%
same,pest or weed control at 80 g/ha,AMARE,90%
same,pest or weed control at 80 g/ha,HORMU [1],90%
same,pest or weed control at 320 g/ha,HORMU [1],100%
same,pest or weed control at 80 g/ha,ABUTH [2],100%
same,pest or weed control at 320 g/ha,ABUTH [2]; [19],100%
same,pest or weed control at 80 g/ha,VIOTR,90%
same,pest or weed control at 20 g/ha,ABUTH [3],90%
same,pest or weed control at 80 g/ha,ABUTH [3],90%
same,pest or weed control at 320 g/ha,POLCO [4],100%
same,pest or weed control at 80 g/ha,ECHCG [5],100%
same,pest or weed control at 320 g/ha,ECHCG [5],100%
same,pest or weed control at 80 g/ha,MATIN [6],100%
same,pest or weed control at 320 g/ha,MATIN [6],100%
same,pest or weed control at 20 g/ha,ALOMY,80%
same,pest or weed control at 80 g/ha,ALOMY,90%
same,pest or weed control at 80 g/ha,POLCO [7],80%
same,pest or weed control at 320 g/ha,LOLRI [8],90%
same,pest or weed control at 20 g/ha,AVEFA [9],90%
same,pest or weed control at 80 g/ha,AVEFA [9],100%
same,pest or weed control at 20 g/ha,LOLRI [10]; dosage 20 g/ha,80%
same,pest or weed control at 80 g/ha,LOLRI [10],90%
same,pest or weed control at 80 g/ha,STEME [11],90%
same,pest or weed control at 320 g/ha,STEME [11],100%
same,pest or weed control at 20 g/ha,MATIN [12],100%
same,pest or weed control at 80 g/ha,MATIN [12],100%
same,pest or weed control at 80 g/ha,AVEFA [13],80%
same,pest or weed control at 320 g/ha,AVEFA [13],100%
same,pest or weed control at 80 g/ha,HORMU [14],80%
same,pest or weed control at 80 g/ha,VERPE [15]; dosage 80 g/ha,90%
same,pest or weed control at 320 g/ha,VERPE [15],90%
same,pest or weed control at 20 g/ha,SETVI,90%
same,pest or weed control at 80 g/ha,SETVI,90%
same,pest or weed control at 20 g/ha,VERPE [16]; 20 g/ha,80%
same,pest or weed control at 80 g/ha,VERPE [16],90%
same,pest or weed control at 80 g/ha,PHBPU,90%
same,pest or weed control at 20 g/ha,ECHCG [17]; dosage 20 g/ha,90%
same,pest or weed control at 80 g/ha,ECHCG [17],90%
same,pest or weed control at 20 g/ha,STEME [18],90%
same,pest or weed control at 80 g/ha,STEME [18],100%

# From patent US12655116B2, “Substituted isophthalic acid diamides” (Bayer Aktiengesellschaft, priority 2020, dated 2026)
